From patent US20160235781A1, “DIURETIC INDUCED ALTERATIONS OF PLASMA VOLUME” (MAST THERAPEUTICS, INC., priority 2013, published 2016) come the findings set out here.

A short description of the experiment: Example 2: diuretic induced hemo-concentration patient, transthoracic echocardiography and body weight. The format is in vivo, human. On the procedure: A person weighing 180 pounds, with a history of a prior myocardial infarction, was hospitalized with fatigue, peripheral edema and difficulty in breathing. […] Diuretic therapy effected by administering IV bolus doses of 150 mg furosemide every 12 hours was started. Their body weight measurement after 48 hours of furosemide treatment was 172 pounds.
The patient was continued on furosemide and a 15% solution of purified poloxamer 188 in citrate buffered saline was administered at a dose of 250 mg/kg as an IV infusion over a period of 1 hour. Twenty-four hours later, their body weight was 168 pounds.

For the compound `NS(=O)(=O)c1cc(C(=O)O)c(NCc2ccco2)cc1Cl` [furosemide], the body weight (after 48 hours of furosemide 150 mg IV bolus every 12 hours, 180 pounds at admission) turned out to be 172 pounds. For the same compound, the ejection fraction (after 48 hours of furosemide alone, 30% at admission) is 29%.
